Results: PubChem BioAssay (NCI)
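Five concentrations, 48 hours, 96-well plates. GI50 = concentration required for 50% inhibition of growth. The concentration for full growth arrest is given as TGI.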

Legend:
Assay in all cases: NCI tumour cell line growth inhibition, 48 h; in the data active means GI50 below about 0.43 µM; inactive means the rest
786-0 renal = tested on: 786-0 renal
A498 renal = tested on: A498 renal
A549 NSCLC = tested on: A549 NSCLC
ACHN renal = tested on: ACHN renal
BT-549 breast = tested on: BT-549 breast
CAKI-1 renal = tested on: CAKI-1 renal
CCRF-CEM leukemia = tested on: CCRF-CEM leukemia
COLO 205 colon = tested on: COLO 205 colon
DU-145 prostate = tested on: DU-145 prostate
EKVX NSCLC = tested on: EKVX NSCLC
HCC-2998 colon = tested on: HCC-2998 colon
HCT-116 colon = tested on: HCT-116 colon
HCT-15 colon = tested on: HCT-15 colon
HL-60(TB) leukemia = tested on: HL-60(TB) leukemia
HOP-62 NSCLC = tested on: HOP-62 NSCLC
HS 578T breast = tested on: HS 578T breast
HT29 colon = tested on: HT29 colon
IGROV1 ovarian = tested on: IGROV1 ovarian
K-562 leukemia = tested on: K-562 leukemia
KM12 colon = tested on: KM12 colon
LOX IMVI melanoma = tested on: LOX IMVI melanoma
M14 melanoma = tested on: M14 melanoma
MALME-3M melanoma = tested on: MALME-3M melanoma
MCF7 breast = tested on: MCF7 breast
MDA-MB-231 breast = tested on: MDA-MB-231 breast
MDA-MB-435 = tested on: MDA-MB-435
MOLT-4 leukemia = tested on: MOLT-4 leukemia
NCI-H226 lung = tested on: NCI-H226 lung
NCI-H23 lung = tested on: NCI-H23 lung
NCI-H460 lung = tested on: NCI-H460 lung
NCI-H522 lung = tested on: NCI-H522 lung
NCI/ADR-RES ovarian = tested on: NCI/ADR-RES ovarian
OVCAR-4 ovarian = tested on: OVCAR-4 ovarian
OVCAR-5 ovarian = tested on: OVCAR-5 ovarian
OVCAR-8 ovarian = tested on: OVCAR-8 ovarian
PC-3 prostate = tested on: PC-3 prostate
RPMI-8226 leukemia = tested on: RPMI-8226 leukemia
RXF 393 renal = tested on: RXF 393 renal
SF-268 CNS = tested on: SF-268 CNS
SF-295 CNS = tested on: SF-295 CNS
SF-539 CNS = tested on: SF-539 CNS
SK-MEL-2 melanoma = tested on: SK-MEL-2 melanoma
SK-MEL-28 melanoma = tested on: SK-MEL-28 melanoma
SK-MEL-5 melanoma = tested on: SK-MEL-5 melanoma
SK-OV-3 ovarian = tested on: SK-OV-3 ovarian
SN12C renal = tested on: SN12C renal
SNB-19 CNS = tested on: SNB-19 CNS
SNB-75 CNS = tested on: SNB-75 CNS
SR leukemia = tested on: SR leukemia
SW-620 colon = tested on: SW-620 colon
T-47D breast = tested on: T-47D breast
TK-10 renal = tested on: TK-10 renal
U251 CNS = tested on: U251 CNS
UACC-257 melanoma = tested on: UACC-257 melanoma
UACC-62 melanoma = tested on: UACC-62 melanoma
UO-31 renal = tested on: UO-31 renal

Nc1ncc(-c2ccc3ncnc(N4CCc5cc(F)c(F)cc54)c3c2)cn1
inactive: GI50 (786-0 renal) 3.42 µM | GI50 (A549 NSCLC) 2.35 µM | GI50 (ACHN renal) 1.73 µM | GI50 (BT-549 breast) 1.86 µM | GI50 (CAKI-1 renal) 0.89 µM | GI50 (CCRF-CEM leukemia) 2.38 µM | GI50 (COLO 205 colon) 5.77 µM | GI50 (DU-145 prostate) 2.38 µM | GI50 (EKVX NSCLC) 1.7 µM | GI50 (HCC-2998 colon) 3.08 µM | GI50 (HCT-116 colon) 4.51 µM | GI50 (HCT-15 colon) 2.28 µM | GI50 (HL-60(TB) leukemia) 5.52 µM | GI50 (HOP-62 NSCLC) 1.36 µM | GI50 (HS 578T breast) 0.751 µM | GI50 (HT29 colon) 2.9 µM | GI50 (IGROV1 ovarian) 0.459 µM | GI50 (K-562 leukemia) > 100 µM | GI50 (KM12 colon) 3.92 µM | GI50 (LOX IMVI melanoma) 1.77 µM | GI50 (M14 melanoma) 3.53 µM | GI50 (MALME-3M melanoma) 1.08 µM | GI50 (MCF7 breast) 1.23 µM | GI50 (MDA-MB-231 breast) 1.87 µM | GI50 (MDA-MB-435) 2.73 µM | GI50 (MOLT-4 leukemia) 3.32 µM | GI50 (NCI-H226 lung) 3 µM | GI50 (NCI-H23 lung) 4.76 µM | GI50 (NCI-H460 lung) 2.11 µM | GI50 (NCI-H522 lung) 4.94 µM | GI50 (NCI/ADR-RES ovarian) 3.91 µM | GI50 (OVCAR-4 ovarian) 1.76 µM | GI50 (OVCAR-5 ovarian) 1.53 µM | GI50 (OVCAR-8 ovarian) 3.06 µM | GI50 (PC-3 prostate) 1.44 µM | GI50 (RPMI-8226 leukemia) 0.559 µM | GI50 (SF-268 CNS) 1.8 µM | GI50 (SF-295 CNS) 2.3 µM | GI50 (SF-539 CNS) 2.49 µM | GI50 (SK-MEL-2 melanoma) 2.44 µM | GI50 (SK-MEL-28 melanoma) 3.26 µM | GI50 (SK-MEL-5 melanoma) 6.1 µM | GI50 (SK-OV-3 ovarian) 1.66 µM | GI50 (SN12C renal) 2.11 µM | GI50 (SNB-19 CNS) 5.35 µM | GI50 (SNB-75 CNS) 0.455 µM | GI50 (SR leukemia) 1.82 µM | GI50 (SW-620 colon) 6.86 µM | GI50 (T-47D breast) 0.858 µM | GI50 (TK-10 renal) 0.709 µM | GI50 (U251 CNS) 4.81 µM | GI50 (UACC-257 melanoma) 7.3 µM | GI50 (UACC-62 melanoma) 1.37 µM
3.15 µM: TGI (RXF 393 renal)
active: GI50 (A498 renal) 0.251 µM | GI50 (RXF 393 renal) 0.381 µM | GI50 (UO-31 renal) 0.396 µM
4.66 µM: TGI (HS 578T breast)
4.03 µM: TGI (SNB-75 CNS)
3.34 µM: TGI (IGROV1 ovarian)
2.13 µM: TGI (A498 renal)
14.1 µM: TGI (LOX IMVI melanoma)
12.3 µM: TGI (SK-MEL-2 melanoma)
> 100 µM: TGI (786-0 renal) | TGI (A549 NSCLC) | TGI (ACHN renal) | TGI (BT-549 breast) | TGI (CAKI-1 renal) | TGI (CCRF-CEM leukemia) | TGI (COLO 205 colon) | TGI (DU-145 prostate) | TGI (EKVX NSCLC) | TGI (HCC-2998 colon) | TGI (HCT-116 colon) | TGI (HCT-15 colon) | TGI (HL-60(TB) leukemia) | TGI (HOP-62 NSCLC) | TGI (HT29 colon) | TGI (K-562 leukemia) | TGI (KM12 colon) | TGI (M14 melanoma) | TGI (MALME-3M melanoma) | TGI (MCF7 breast) | TGI (MDA-MB-231 breast) | TGI (MDA-MB-435) | TGI (MOLT-4 leukemia) | TGI (NCI-H226 lung) | TGI (NCI-H23 lung) | TGI (NCI-H460 lung) | TGI (NCI-H522 lung) | TGI (NCI/ADR-RES ovarian) | TGI (OVCAR-4 ovarian) | TGI (OVCAR-5 ovarian) | TGI (OVCAR-8 ovarian) | TGI (PC-3 prostate) | TGI (RPMI-8226 leukemia) | TGI (SF-268 CNS) | TGI (SF-295 CNS) | TGI (SF-539 CNS) | TGI (SK-MEL-28 melanoma) | TGI (SK-MEL-5 melanoma) | TGI (SK-OV-3 ovarian) | TGI (SN12C renal) | TGI (SNB-19 CNS) | TGI (SR leukemia) | TGI (SW-620 colon) | TGI (T-47D breast) | TGI (TK-10 renal) | TGI (U251 CNS) | TGI (UACC-257 melanoma) | TGI (UACC-62 melanoma) | TGI (UO-31 renal)
